The subject of one experiment is cyclin D1. The experiment can be described thus: Western blot of cyclin D1 in MCF-7-TR4 cells. It counts as cell-based. The conditions noted are these: 10 nM E2, Dox. On the procedure:
MCF-7-TR4 or MCF-7-pBIG cells were cultured in DMEM containing 10% charcoal dextran-treated FBS for 3 days and then 1×10^6 cells were seeded on 100-mm dishes. […] The lysate protein amount was quantitated by Bradford assay (Bio-Rad, Hercules, Calif.) with bovine serum albumin as a reference standard. One hundred μg protein was loaded and after electrophoresis on 10% SDS-PAGE was transferred onto Immobulin (Milipore, Bedford, Mass.). The membrane was blotted with anti-cyclin D1 rabbit polyclonal Ab (H-295) (Santa Cruz). Alkaline phosphatase conjugated secondary Ab was used.
For orientation: In western blotting, separated proteins are transferred to a membrane and probed.

A further experiment concerns MCF-7-TR4 cells. As to the kind of experiment: MCF-7 cells growth assay (cell counting). The format is cell-based. The conditions noted are these: MCF-7-TR4 cells (E2 also in MCF-7-pBIG); 10 nM E2; Dox. As to the method:
MCF-7-TR4 and MCF-7-pBIG cells, which were deprived of estrogen by culturing in phenol-free DMEM medium supplement with 10% charcol-stripped FBS for 4 days, were plated at 10^4 cells/well into 24-well plate. […] Cells were trypsinized at the specified time points and counted with a hemocytometer to determine cell density per sample.

In the next experiment the test system is PR. The experiment can be described thus: Endogenous PR expression in T47D cells (Northern / Western). It counts as cell-based, human. The conditions noted are these: T47D cells; 10 nM E2, 24 h. As to the method:
The method was used as previously described, Lee & Chang. (1996) J. Biol. Chem. 271. 10405-10412, with some modifications. Briefly. 5 μg of pCMV-TR2 was transiently transfected into T47D cells and lysed in RIPA buffer (10 mM sodium phosphate, pH 7.0. 150 mM NaCL, 2 mM EDT A. 1% (w/v) Nonidet P-40, 0.1% (w/v) SDS. 1% (w/v) sodium deoxycholate) with freshly adding proteinase inhibitors. The soluble protein was quantified using the Bio-Rad Protein Assay reagent (Bio-Rad Laboratories) and 50 μg soluble proteins were loaded onto SDS/10% PAGE and then transferred to Immobion-P transfer membrane (Millipore). After the blocking reaction overnight, the membrane was incubated with […] anti-PR polyclonal antibody (H-190. Santa Cruz) in PBS(−) containing 0.1% Skim milk for 2 h at room temperature. The membrane was washed and then incubated in 15 μCi 125I] of protein-A (DuPont NEN)/30 ml of PBS(−) containing 0.1% Skim milk for 1 h at room temperature. The western blots were autoradiographed and quantitated by using Phosphorlmager.
RNA isolation and Northern blot analysis were performed as previously described. Young, et al., J. Biol. Chem. 273,20877-20885 (1998).
Next it was determined if TR2 could repress the ER endogenous target gene expression. PR was chosen because it is well studied as an E2-ER target gene in T47D cells. Misrahi et al., Biochem. Biophys. Res. Commun. 143, 740-748 (1987). […] Cells were then used for RNA isolation (Northern blot analysis) and lysate protein extraction (Western blot analysis). For RNA analysis, total RNAs were isolated, and Northern blots were performed using [32P] labeled PR cDNA probes. The membrane was autoradiographed. For Protein Western blot analysis, cells lysates were prepared and PR proteins were visualized by radioimmunoblot. The membrane was autoradiographed to Phosphorimager and was quantitated by ImageQuant software.

The next experiment concerns MCF7-TR2 cells. As to the kind of experiment: Cell cycle profile by flow cytometry, MCF7-TR2 cells. It counts as cell-based. The conditions noted are these: 3 days, E2, or E2 with doxycycline-induced TR2. On the procedure:
(A) Growth assays were performed by MTT method as instructed by manufacturer (Sigma). 5×10^3 MCF7-pBIG and MCF7-TR2 cells were seeded in 24-well plates and incubated in RPMI with 10% CD-FCS for 48 h. […] After 3- and 5-day treatment, cells were harvested for MTT assay. Data represents the relative folds of MTT O.D.570 values at day 5 divided by that at day 3. […] Cells were then trypsinized and fixed overnight in 70% Ethanol. After cells were incubated with 1 mg/ml RNase A (Sigma) and propidium iodide (Roche Molecular Biochemicals), the DNA contents of cells were measured by a flow cytometry. (C) Percentage of growth suppression by TR2. MCF7-TR2 cells were seeded at 5×10^3 cells per well in 24-well plates. […] The treatments were changed every two days. The indices of cell growth were determined by MTT assay. The MTT values from cells without doxycycline were set as 100% in each kind of treatment. Values are represented by the percentage of growth suppression from cells with doxycycline to that without doxycycline.
A general note: A flow cytometer gives signals particle by particle.

Experiment [1] concerns the target T1, estrogen receptor (ER), full-length (human, UniProt P03372 1-595).
T1 construct: 35S-labeled when in vitro translated for the pull-downs; endogenous in MCF7 cells for the co-immunoprecipitation; also called ERα; pSG5-ER
T1 sequence: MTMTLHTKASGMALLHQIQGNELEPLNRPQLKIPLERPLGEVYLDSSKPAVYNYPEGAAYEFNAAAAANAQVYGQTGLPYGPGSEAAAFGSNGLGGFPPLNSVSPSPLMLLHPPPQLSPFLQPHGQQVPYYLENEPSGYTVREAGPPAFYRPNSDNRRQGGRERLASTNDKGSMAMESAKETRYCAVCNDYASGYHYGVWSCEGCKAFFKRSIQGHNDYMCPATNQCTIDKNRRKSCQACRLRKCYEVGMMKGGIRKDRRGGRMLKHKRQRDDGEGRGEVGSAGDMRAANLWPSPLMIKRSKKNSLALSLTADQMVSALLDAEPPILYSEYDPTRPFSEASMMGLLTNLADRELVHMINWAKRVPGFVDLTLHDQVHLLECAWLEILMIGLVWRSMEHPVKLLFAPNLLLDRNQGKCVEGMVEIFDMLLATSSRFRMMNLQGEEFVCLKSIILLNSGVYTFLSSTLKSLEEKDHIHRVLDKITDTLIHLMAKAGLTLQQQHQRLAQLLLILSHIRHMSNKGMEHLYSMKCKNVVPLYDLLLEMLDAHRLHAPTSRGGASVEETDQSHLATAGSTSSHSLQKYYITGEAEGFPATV
As to the kind of experiment: GST pull-down, GST-TR2 fragment on beads, [35S]-ER.

Consider two molecules from patent publication US20030235860A1, “Interactions between AR, ER, TR2, and TR4” (priority 1999, published 2003).

As to `C[C@]12CC[C@@H]3c4ccc(O)cc4CC[C@H]3[C@@H]1CC[C@@H]2O` [E2, 17β-estradiol, reference compound], the “Cyclin D1 expression” value in the experiment with cyclin D1 was “induced cyclin D1 expression”. For the same molecule, the “Cell growth (cell number)” value in the experiment on MCF-7-TR4 cells was “stimulated cell growth”. The “Induction of PR mRNA expression” value in the experiment on PR is on record as “about 3 fold”. In addition, in the experiment with MCF7-TR2 cells, the “Cells in G1” value was determined as 37.4% and the “Cells in S” value was determined as 23.6%.

B1: GST-TR2-#1 (N-terminus, aa 1-112 of TR2) (other)
chain: MATIEEIAHQIIEQQMGEIVTEQQTGQKIQIVTALDHNTQGKQFILTNHDGSTPSKVILARQDSTPGKVFLTTPDAAGVNQLFFTTPDLSAQHLQLLTDNSPDQGPNKVFDL
notes: also called pGEX-KG-TR2-#1; not shown: GST carrier of pGEX-KG and its linker
As to B1, the binding result in experiment [1] is recorded as “no binding”.
